Assay results taken from patent US9985214B2, “Monoamine compound, charge transport material, composition for charge transport film, organic electroluminescent element, organic EL display, and organic EL lighting” (Mitsubishi Chemical Corporation, priority 2009, dated 2018).

Key:
Format in all cases: physicochemical
[1] = Glass transition temperature of the compound
[2] = Measurement of solubility in m-xylene; parameters: key: +: The compound dissolved.; −: The compound remained undissolved, giving a suspension, or separated out as crystals in 12 hours
Source text: <Measurement of Solubility in m-Xylene>
The compound I synthesized in [Synthesis of Compound I] above and the comparative compounds X-A and X-B represented by the following structural formulae were examined for solubility in m-xylene.

[3] = Dissolution of the compound in the composition for luminescent-layer formation / production of element; details: same procedure as Example 2, cyclohexylbenzene as solvent; production of an element was impossible
Method: Next, a composition for luminescent-layer formation which included compound C3 represented by the following formula and the compound II obtained in Synthesis Example as charge-transporting compounds, phosphorescent metal complex D2, and cyclohexylbenzene as a solvent was prepared. The concentrations of the compound C3, the compound II, and the phosphorescent metal complex D2 in the composition were 1.25% by mass, 3.75% by mass, and 0.7% by mass, respectively.
The same procedure as in Example 2 was conducted, except that the compound X-C was used in place of the compound II.

Compound: c1ccc(-c2cccc(-c3ccc(N(c4ccc(-c5cccc(-c6cccc(-n7c8ccccc8c8ccccc87)c6)c5)cc4)c4ccc(-c5cccc(-n6c7ccccc7c7ccccc76)c5)cc4)cc3)c2)cc1 [Compound I]
- Glass transition temperature [1]: 127 °C
- Solubility in m-xylene, Concentration 1.0 mass % [2]: +
- Solubility in m-xylene, Concentration 5.0 mass % [2]: +
- Solubility in m-xylene, Concentration 10 mass % [2]: +

Compound: c1ccc(-c2ccc(-c3ccc(N(c4ccc(-c5cccc(-c6cccc7ccccc67)c5)cc4)c4ccc(-c5cccc(-n6c7ccccc7c7ccccc76)c5)cc4)cc3)cc2)cc1 [Compound X-C]
- behaviour of the compound after dissolution in the composition for luminescent-layer formation [3]: crystallized after dissolved

Compound: c1cc(-c2ccc(N(c3ccc(-c4cccc(-n5c6ccccc6c6ccccc65)c4)cc3)c3ccc(-c4cccc(-n5c6ccccc6c6ccccc65)c4)cc3)cc2)cc(-n2c3ccccc3c3ccccc32)c1 [X-A]
- Glass transition temperature [1]: 159 °C
- Solubility in m-xylene, Concentration 1.0 mass % [2]: +
- Solubility in m-xylene, Concentration 5.0 mass % [2]: −
- Solubility in m-xylene, Concentration 10 mass % [2]: −

Compound: c1ccc(-c2cccc(-c3ccc(N(c4ccc(-c5cccc(-n6c7ccccc7c7ccccc76)c5)cc4)c4ccc(-c5cccc(-n6c7ccccc7c7ccccc76)c5)cc4)cc3)c2)cc1 [X-B]
- Glass transition temperature [1]: 120 °C
- Solubility in m-xylene, Concentration 1.0 mass % [2]: −
- Solubility in m-xylene, Concentration 5.0 mass % [2]: −
- Solubility in m-xylene, Concentration 10 mass % [2]: −
